In assay [1] the test system is E. coli JH007 (ydhF- mutant overexpressing PhoH). The experiment in a line: Growth curve of JH007 strain with various concentrations of alcohols (OD595). It is filed as cell-based, Escherichia coli. Particulars: for alcohol concentration at which growth of JH007 was inhibited: JH007, IPTG-induced, LB medium, 37° C., OD595. The protocol: (§1) After 2 h of induction, the cultures were diluted to 0.35 OD595 in a fresh LB medium supplemented with kanamycin and 50 μg/ml of chloraphenicol, with the addition of 0-18% ethanol, 0-5% 1-propanol, 0-5% iso-propanol, 0-7% 1-butanol, and 0-7% iso-butanol in triplicate.
Referring to FIG. 7, cell growth condition of JH007 strain was monitored with OD595 with the changes of cell turbidities.

The subject of assay [2] is E. coli JH016 (potG- mutant overexpressing Hmp). Description: Growth curve of JH016 strain with various concentrations of alcohols (OD595). It is filed as cell-based, Escherichia coli. Particulars: for alcohol concentration at which growth of JH016 was inhibited: JH016, OD595. The protocol:
as §1
(§2) Growth of JH016 was inhibited by 1-butanol at concentrations at least 2.5% (v/v), isobutanol at least 4%, 1-propanol at least 5%, isopropanol at least 5%, or ethanol at least 10%. And the growth of JH017 was inhibited by 1-butanol at concentrations at least 2% (v/v), isobutanol at least 3.5%, 1-propanol at least 5%, isopropanol at least 5%, or ethanol at least 12%. The abovementioned concentration of alcohol would for sure inhibit the growth of wild type E. coli.

Assay [3] deals with E. coli JH017 (potG- mutant overexpressing YqhD). Description: Growth curve of JH017 strain with various concentrations of alcohols (OD595). The format is cell-based, Escherichia coli. The protocol:
as §1, §2

The test system of the next assay is wild type E. coli. As to conditions: conventional fermentation process; cited from earlier work.
Assay [4] has as its system E. coli wild-type strain BW25113. Particulars: wild type E. coli BW25113, LB medium, OD600. On the procedure: E. coli wild-type strain BW25113 was cultured overnight and then inoculated into a fresh LB medium containing 0-10% (v/v) of 1-butanol. Cells were cultivated with shaking and the optical density at 600 nm was measured every 15 minutes.
A further assay relates to E. coli JH007. As to conditions: JH007, 2% v/v 1-butanol, 4 h, IPTG-induced vs uninduced.

Some results are limits rather than exact numbers.

With `CCCO` [1-propanol], the “alcohol concentration at which growth of JH007 was inhibited” value in assay [1] is reported as “at least 6 % (v/v)”.

As for `CCO` [ethanol], in assay [2] (JH016), the “tolerance of ethanol concentration (up to)” value was “up to 12 % (v/v)”. Further, in assay [2], the “alcohol concentration at which growth of JH016 was inhibited” value is recorded as “at least 10 % (v/v)”. Further, in assay [3], the “alcohol concentration at which growth of JH017 was inhibited” value is “at least 12 % (v/v)”.

In the case of 1-butanol, the “alcohol concentration at which growth of JH016 was inhibited” value in assay [2] is on record as “at least 2.5 % (v/v)”. Also, the “concentration of 1-butanol at which growth was inhibited” value in the assay with wild type E. coli is recorded as 1%. The “concentration of 1-butanol at which growth was almost completely inhibited” value in assay [4] is given as ≥ 1.5 % (v/v). In the assay with E. coli JH007, the “1-butanol tolerance (survival rate) relative to control” value worked out at 5.5 fold. For the same compound, the “tolerance of 1-butanol concentration (up to)” value in assay [1] (JH007) is on record as “up to 5 % (v/v)”. The “alcohol concentration at which growth of JH007 was inhibited” value in assay [1] is on record as “at least 5 % (v/v)”. Besides, in assay [3], the “alcohol concentration at which growth of JH017 was inhibited” value is given as “at least 2 % (v/v)”.

With `CC(C)CO` [isobutanol], the “alcohol concentration at which growth of JH016 was inhibited” value in assay [2] is “at least 4 % (v/v)”. The “alcohol concentration at which growth of JH007 was inhibited” value in assay [1] is “at least 3.5 % (v/v)”. Besides, in assay [3], the “alcohol concentration at which growth of JH017 was inhibited” value is reported as “at least 3.5 % (v/v)”.
